Laboratory results published in PubChem BioAssay (NCI).
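Each compound was tested at five concentrations against cells in 96-well plates for 48 hours. GI50: concentration for 50% inhibition of growth. The concentration for full growth arrest is given as TGI.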

What was measured:
Test in all cases: inhibition of tumour cell growth, NCI panel, 48 h; in the data active = GI50 below about 0.43 µM; inactive = the rest
786-0 renal = test system: 786-0 renal
A498 renal = test system: A498 renal
A549 NSCLC = test system: A549 NSCLC
ACHN renal = test system: ACHN renal
BT-549 breast = test system: BT-549 breast
CAKI-1 renal = test system: CAKI-1 renal
CCRF-CEM leukemia = test system: CCRF-CEM leukemia
COLO 205 colon = test system: COLO 205 colon
DU-145 prostate = test system: DU-145 prostate
HCC-2998 colon = test system: HCC-2998 colon
HCT-116 colon = test system: HCT-116 colon
HCT-15 colon = test system: HCT-15 colon
HL-60(TB) leukemia = test system: HL-60(TB) leukemia
HOP-62 NSCLC = test system: HOP-62 NSCLC
HOP-92 NSCLC = test system: HOP-92 NSCLC
HS 578T breast = test system: HS 578T breast
HT29 colon = test system: HT29 colon
IGROV1 ovarian = test system: IGROV1 ovarian
K-562 leukemia = test system: K-562 leukemia
KM12 colon = test system: KM12 colon
LOX IMVI melanoma = test system: LOX IMVI melanoma
M14 melanoma = test system: M14 melanoma
MALME-3M melanoma = test system: MALME-3M melanoma
MCF7 breast = test system: MCF7 breast
MDA-MB-231 breast = test system: MDA-MB-231 breast
MDA-MB-435 = test system: MDA-MB-435
MOLT-4 leukemia = test system: MOLT-4 leukemia
NCI-H226 lung = test system: NCI-H226 lung
NCI-H23 lung = test system: NCI-H23 lung
NCI-H460 lung = test system: NCI-H460 lung
NCI-H522 lung = test system: NCI-H522 lung
NCI/ADR-RES ovarian = test system: NCI/ADR-RES ovarian
OVCAR-3 ovarian = test system: OVCAR-3 ovarian
OVCAR-4 ovarian = test system: OVCAR-4 ovarian
OVCAR-5 ovarian = test system: OVCAR-5 ovarian
OVCAR-8 ovarian = test system: OVCAR-8 ovarian
PC-3 prostate = test system: PC-3 prostate
RPMI-8226 leukemia = test system: RPMI-8226 leukemia
RXF 393 renal = test system: RXF 393 renal
SF-268 CNS = test system: SF-268 CNS
SF-295 CNS = test system: SF-295 CNS
SF-539 CNS = test system: SF-539 CNS
SK-MEL-2 melanoma = test system: SK-MEL-2 melanoma
SK-MEL-28 melanoma = test system: SK-MEL-28 melanoma
SK-MEL-5 melanoma = test system: SK-MEL-5 melanoma
SK-OV-3 ovarian = test system: SK-OV-3 ovarian
SN12C renal = test system: SN12C renal
SNB-19 CNS = test system: SNB-19 CNS
SNB-75 CNS = test system: SNB-75 CNS
SR leukemia = test system: SR leukemia
SW-620 colon = test system: SW-620 colon
T-47D breast = test system: T-47D breast
TK-10 renal = test system: TK-10 renal
U251 CNS = test system: U251 CNS
UACC-257 melanoma = test system: UACC-257 melanoma
UACC-62 melanoma = test system: UACC-62 melanoma
UO-31 renal = test system: UO-31 renal

Cn1cc(C2=C(c3c4n(c5ccccc35)CCCC4)C(=O)NC2=O)c2ccccc21
19.3 µM: TGI (SNB-75 CNS)
> 21.6 µM: TGI (OVCAR-3 ovarian)
> 16.1 µM: TGI (RXF 393 renal)
> 25 µM: TGI (786-0 renal) | TGI (A498 renal) | TGI (A549 NSCLC) | TGI (ACHN renal) | TGI (BT-549 breast) | TGI (CAKI-1 renal) | TGI (CCRF-CEM leukemia) | TGI (COLO 205 colon) | TGI (DU-145 prostate) | TGI (HCC-2998 colon) | TGI (HCT-116 colon) | TGI (HCT-15 colon) | TGI (HL-60(TB) leukemia) | TGI (HOP-62 NSCLC) | TGI (HOP-92 NSCLC) | TGI (HS 578T breast) | TGI (HT29 colon) | TGI (IGROV1 ovarian) | TGI (K-562 leukemia) | TGI (KM12 colon) | TGI (LOX IMVI melanoma) | TGI (M14 melanoma) | TGI (MALME-3M melanoma) | TGI (MCF7 breast) | TGI (MDA-MB-231 breast) | TGI (MOLT-4 leukemia) | TGI (NCI-H226 lung) | TGI (NCI-H23 lung) | TGI (NCI-H460 lung) | TGI (NCI/ADR-RES ovarian) | TGI (OVCAR-4 ovarian) | TGI (OVCAR-5 ovarian) | TGI (OVCAR-8 ovarian) | TGI (PC-3 prostate) | TGI (RPMI-8226 leukemia) | TGI (SF-268 CNS) | TGI (SF-295 CNS) | TGI (SF-539 CNS) | TGI (SK-MEL-2 melanoma) | TGI (SK-MEL-28 melanoma) | TGI (SK-MEL-5 melanoma) | TGI (SK-OV-3 ovarian) | TGI (SN12C renal) | TGI (SNB-19 CNS) | TGI (SR leukemia) | TGI (SW-620 colon) | TGI (T-47D breast) | TGI (TK-10 renal) | TGI (U251 CNS) | TGI (UACC-257 melanoma) | TGI (UACC-62 melanoma) | TGI (UO-31 renal)
> 16.3 µM: TGI (NCI-H522 lung)
> 15.2 µM: TGI (MDA-MB-435)
inactive: GI50 (786-0 renal) > 17.8 µM | GI50 (A498 renal) 5.19 µM | GI50 (A549 NSCLC) 12.5 µM | GI50 (ACHN renal) 20.4 µM | GI50 (BT-549 breast) > 18.5 µM | GI50 (CAKI-1 renal) 8.1 µM | GI50 (CCRF-CEM leukemia) > 15.3 µM | GI50 (COLO 205 colon) 10.7 µM | GI50 (DU-145 prostate) > 15 µM | GI50 (HCC-2998 colon) > 23.8 µM | GI50 (HCT-116 colon) 11.4 µM | GI50 (HCT-15 colon) 11 µM | GI50 (HL-60(TB) leukemia) 9.59 µM | GI50 (HOP-62 NSCLC) > 17.6 µM | GI50 (HOP-92 NSCLC) 8.89 µM | GI50 (HS 578T breast) 5.13 µM | GI50 (HT29 colon) 9.39 µM | GI50 (IGROV1 ovarian) > 8.23 µM | GI50 (K-562 leukemia) 5.32 µM | GI50 (KM12 colon) 9.71 µM | GI50 (LOX IMVI melanoma) 16.6 µM | GI50 (M14 melanoma) 13.4 µM | GI50 (MALME-3M melanoma) > 17.8 µM | GI50 (MCF7 breast) 6.58 µM | GI50 (MDA-MB-231 breast) > 20.2 µM | GI50 (MDA-MB-435) 1.08 µM | GI50 (MOLT-4 leukemia) > 17.2 µM | GI50 (NCI-H226 lung) > 22 µM | GI50 (NCI-H23 lung) > 18.2 µM | GI50 (NCI-H460 lung) 9.9 µM | GI50 (NCI-H522 lung) 4.29 µM | GI50 (NCI/ADR-RES ovarian) 7.81 µM | GI50 (OVCAR-3 ovarian) 6.43 µM | GI50 (OVCAR-4 ovarian) > 16.5 µM | GI50 (OVCAR-5 ovarian) > 25 µM | GI50 (OVCAR-8 ovarian) > 18.4 µM | GI50 (PC-3 prostate) 10.4 µM | GI50 (RPMI-8226 leukemia) > 15.6 µM | GI50 (RXF 393 renal) 5.86 µM | GI50 (SF-268 CNS) 12 µM | GI50 (SF-295 CNS) 7.21 µM | GI50 (SF-539 CNS) 10.5 µM | GI50 (SK-MEL-2 melanoma) 10.1 µM | GI50 (SK-MEL-28 melanoma) > 21.8 µM | GI50 (SK-MEL-5 melanoma) 7.94 µM | GI50 (SK-OV-3 ovarian) > 15.3 µM | GI50 (SN12C renal) 15.1 µM | GI50 (SNB-19 CNS) 20.6 µM | GI50 (SNB-75 CNS) 3.82 µM | GI50 (SR leukemia) 5.92 µM | GI50 (SW-620 colon) 8.74 µM | GI50 (T-47D breast) > 15.5 µM | GI50 (TK-10 renal) > 20.1 µM | GI50 (U251 CNS) 13.2 µM | GI50 (UACC-257 melanoma) > 21.7 µM | GI50 (UACC-62 melanoma) 6.32 µM | GI50 (UO-31 renal) 11.3 µM
